Like-named read-outs stand apart in the source and are kept apart here.
How the values were obtained:
MRSA SA-ST239 = test: MIC and checkerboard (FIC) assay; details: for MIC / MIC90 / MIC99: Staphylococcus aureus, MRSA; for MIC99: read-out: MIC 99.9
[1] = system: S. aureus SA-APH3′ (APH3), resistant to kanamycin; test: MIC and checkerboard (FIC) assay; details: Staphylococcus aureus; for MIC99: read-out: MIC 99.9
[2] = system: S. aureus SA-APH2″-AAC6′ (APH2), resistant to gentamicin; test: MIC and checkerboard (FIC) assay; details: for MIC / MIC90 / MIC99: Staphylococcus aureus; for MIC99: read-out: MIC 99.9
CA-MRSA strain ST30 = test: MIC and checkerboard (FIC) assay; format: cell-based, Staphylococcus aureus; details: Staphylococcus aureus, MRSA, ST30
[3] = system: S. aureus SA-ANT4′ (ANT4), resistant to fusidic acid; test: MIC and checkerboard (FIC) assay; details: for MIC / MIC90 / MIC99: Staphylococcus aureus; for MIC99: read-out: MIC 99.9
[4] = system: S. aureus SA-RN4220-pUL5054 (RN4220); test: MIC and checkerboard (FIC) assay; details: Staphylococcus aureus; for MIC99: read-out: MIC 99.9
[5] = system: S. aureus SA-1199B (NorA efflux pump overexpressed); test: MIC and checkerboard (FIC) assay; details: for MIC / MIC90 / MIC99: Staphylococcus aureus; for MIC99: read-out: MIC 99.9
[6] = system: internalization of MRSA strain JE-2 by HaCat keratinocytes; test: Internalization of S. aureus by HaCaT keratinocytes; format: cell-based, Staphylococcus aureus
[7] = system: panel of laboratory MRSA strains; test: MIC and combination tests, panel of laboratory strains; details: tanshinone highest tested concentration 128 μg/ml
[8] = system: bacterial aggregation of MRSA JE-2; test: Aggregation assay of MRSA JE-2; format: cell-based, Staphylococcus aureus; details: JE-2; varying concentrations
[9] = system: S. aureus ATCC25923 (methicillin sensitive); test: MIC and checkerboard (FIC) assay; details: Staphylococcus aureus; for MIC90: ATCC25923; for MIC99: ATCC25923, read-out: MIC 99.9
[10] = system: adherence of MRSA strain JE-2 to HaCat keratinocytes; test: Bacterial adherence to HaCaT keratinocytes; format: cell-based, Staphylococcus aureus; details: varying concentrations of baicalein
[11] = system: adherence of MRSA strain JE-2 to fibrinogen; test: Fibrinogen-binding adherence assay (crystal violet); format: cell-based, Staphylococcus aureus; details: varying concentrations
[12] = system: NorA overexpressed S. aureus; details: NorA overexpressed S. aureus, cited from earlier work
[13] = system: clinical fusidic acid resistant MRSA strain 82356; test: MIC and checkerboard (FIC) assay; format: cell-based, Staphylococcus aureus
[14] = system: clinical fusidic acid resistant MRSA strain 73621; test: MIC and checkerboard (FIC) assay; format: cell-based, Staphylococcus aureus
[15] = system: clinical fusidic acid resistant MRSA strain 96591; test: MIC and checkerboard (FIC) assay; format: cell-based, Staphylococcus aureus
[16] = read-out: Activity (MIC, μg/ml)
[17] = read-out: Minimum inhibitory concentration to compound (MIC)

**Q.** Which FIC (MRSA SA-ST239; ST239, ECG with WQD-164) does the source give for `C=C(C)C(CC=C(C)C)Cc1c(O)cc(OC)c(C(=O)/C=C/c2ccc(O)cc2OC)c1O` (racemic) [WQD-164, (E)-1-(2,4-dihydroxy-6-methoxy-3-(5-methyl-2-(prop-1-en-2-yl)hex-4-en-1-yl)phenyl)-3-(4-hydroxy-2-methoxyphenyl)prop-2-en-1-one] here?
**A.** 0.50

**Q.** What about the MIC combine (MRSA SA-ST239; ST239, ECG with WQD-164) of the same compound?
**A.** 4 µg/mL

**Q.** What about the MIC (MRSA SA-ST239; [16]) of the same compound?
**A.** 32 µg/mL

**Q.** What about the MIC (MRSA SA-ST239; read-out: MIC alone) of the same compound?
**A.** 32 µg/mL

**Q.** And the MIC [1, 17]?
**A.** 32 µg/mL

**Q.** And the FIC ([2]; APH2″-AAC6′, ECG with WQD-164)?
**A.** 0.50

**Q.** And the MIC combine ([2]; APH2″-AAC6′, ECG with WQD-164)?
**A.** 8 µg/mL

**Q.** And the MIC ([2]; read-out: MIC alone)?
**A.** 16 µg/mL

**Q.** And the MIC [2, 17]?
**A.** 16 µg/mL

**Q.** What about the MIC (CA-MRSA strain ST30; Table 8, read-out: Minimum inhibitory concentration to compound (MIC)) of the same compound?
**A.** 128 µg/mL

**Q.** And the MIC (CA-MRSA strain ST30; [16])?
**A.** 128 µg/mL

**Q.** What about the MIC [3, 17] of the same compound?
**A.** 32 µg/mL

**Q.** And the MIC [4, 17]?
**A.** 64 µg/mL

**Q.** What about the MIC ([5]; read-out: Minimum inhibitory concentration to compound (MIC), 1199B′, Table 8) of the same compound?
**A.** 64 µg/mL

**Q.** Which “decrease in the internalization as compared to the WT strain” value ([6]; 4 μg/ml (baicalein)) does the source give for `O=c1cc(-c2ccccc2)oc2cc(O)c(O)c(O)c12` [Baicalein, 5,6,7-trihydroxyflavone] here?
**A.** 2.7 fold

**Q.** What about the “internalization lower as compared to the mutant ΔSrtA” value ([6]; 64 μg/ml of baicalein) of the same compound?
**A.** 1.9 fold

**Q.** What about the “reduction in internalization as compared to the WT strain” value ([6]; 64 μg/ml of baicalein) of the same compound?
**A.** 5 fold

**Q.** What about the MIC90 (MRSA SA-ST239) of the same compound?
**A.** 128 µg/mL

**Q.** And the MIC99 (MRSA SA-ST239)?
**A.** > 512 µg/mL

**Q.** What about the MIC90 [1] of the same compound?
**A.** 64 µg/mL

**Q.** What about the MIC99 [1] of the same compound?
**A.** > 512 µg/mL

**Q.** What about the MIC90 [2] of the same compound?
**A.** 128 µg/mL

**Q.** And the MIC99 [2]?
**A.** > 512 µg/mL

**Q.** And the “activity against the tested MRSA strains when used alone” value (“activity” below) [7]?
**A.** relatively weak

**Q.** And the bacterial aggregation [8]?
**A.** reduced

**Q.** And the MIC90 [9]?
**A.** 128 µg/mL

**Q.** What about the MIC99 [9] of the same compound?
**A.** > 512 µg/mL

**Q.** And the “average decrease in the adherence of the WT strain to HaCaT cells” value [10]?
**A.** 3.5 fold

**Q.** And the fibrinogen-binding adherence [11]?
**A.** minimal reduction in adherence

**Q.** What about the MIC90 [3] of the same compound?
**A.** 128 µg/mL

**Q.** What about the MIC99 [3] of the same compound?
**A.** > 512 µg/mL

**Q.** What about the MIC90 [4] of the same compound?
**A.** 64 µg/mL

**Q.** And the MIC99 [4]?
**A.** > 512 µg/mL

**Q.** What about the FIC ([5]; 1199B, Baicalein with ECG) of the same compound?
**A.** 0.0625

**Q.** What about the MIC combine ([5]; 1199B, Baicalein with ECG) of the same compound?
**A.** 8 µg/mL

**Q.** What about the MIC90 [5] of the same compound?
**A.** 128 µg/mL

**Q.** And the MIC99 [5]?
**A.** > 512 µg/mL

**Q.** What about the MIC ([5]; read-out: MIC alone, 1199B, Baicalein and ECG section) of the same compound?
**A.** 512 µg/mL

**Q.** With `COc1ccc2cc3[n+](cc2c1OC)CCc1cc2c(cc1-3)OCO2` [Berberine] as the compound, how does the MIC90 (MRSA SA-ST239) read?
**A.** 256 µg/mL

**Q.** And the MIC99 (MRSA SA-ST239)?
**A.** > 512 µg/mL

**Q.** What about the “antimicrobial action (MIC) potentiated” value ([12]; with multidrug pump inhibitor 5′-methoxyhydnocarpin) of the same compound?
**A.** 2 µg/mL

**Q.** And the “antimicrobial action (MIC) alone” value ([12]; without pump inhibitor)?
**A.** 32 µg/mL

**Q.** What about the MIC90 [1] of the same compound?
**A.** 128 µg/mL

**Q.** And the MIC99 [1]?
**A.** > 512 µg/mL

**Q.** And the MIC90 [2]?
**A.** 256 µg/mL

**Q.** What about the MIC99 [2] of the same compound?
**A.** > 512 µg/mL

**Q.** What about the “activity” value [7] of the same compound?
**A.** relatively weak

**Q.** And the bacterial aggregation [8]?
**A.** reduced

**Q.** What about the MIC90 [9] of the same compound?
**A.** 256 µg/mL

**Q.** And the MIC99 [9]?
**A.** > 512 µg/mL

**Q.** And the fibrinogen-binding adherence [11]?
**A.** dose-dependent reduction of adherence

**Q.** What about the MIC90 [3] of the same compound?
**A.** 256 µg/mL

**Q.** And the MIC99 [3]?
**A.** > 512 µg/mL

**Q.** What about the MIC90 [4] of the same compound?
**A.** 256 µg/mL

**Q.** And the MIC99 [4]?
**A.** > 512 µg/mL

**Q.** What about the MIC90 [5] of the same compound?
**A.** 256 µg/mL

**Q.** And the MIC99 [5]?
**A.** > 512 µg/mL

**Q.** With `C=C(C)C(CC=C(C)C)Cc1c(OC)cc(OC)c(C(=O)/C=C/c2ccc(OCOC)cc2OCOC)c1OC` (stereo not drawn) [Compound A] as the compound, how does the MIC [4, 16] read?
**A.** > 256 µg/mL

**Q.** Which MIC [4, 16] does the source give for `C=C(C)C(CC=C(C)C)Cc1c(OC)cc(OC)c(C(=O)/C=C/c2ccc(O)cc2O)c1OC` (stereo not drawn) [Compound B] here?
**A.** 64 µg/mL

**Q.** For `CC(=O)O[C@H]1C[C@@]2(C)[C@@H](C[C@@H](O)[C@H]3[C@@]4(C)CC[C@@H](O)[C@@H](C)[C@@H]4CC[C@@]32C)/C1=C(\CCC=C(C)C)C(=O)O` [Fusidic acid, fusidic acid, reference compound], which FIC ([13]; 82356, ECG+Kur+Fus) is on record?
**A.** 0.03

**Q.** And the MIC combine ([13]; 82356, ECG+Kur+Fus)?
**A.** 1 µg/mL

**Q.** And the MIC ([13]; Staphylococcus aureus, MRSA, 82356 (fusidic acid resistant), read-out: MIC alone)?
**A.** 32 µg/mL

**Q.** What about the FIC ([14]; 73621, ECG+Kur+Fus) of the same compound?
**A.** 0.03

**Q.** And the MIC combine ([14]; 73621, ECG+Kur+Fus)?
**A.** 1 µg/mL

**Q.** And the MIC ([14]; Staphylococcus aureus, MRSA, 73621 (fusidic acid resistant), read-out: MIC alone)?
**A.** 32 µg/mL

**Q.** What about the FIC ([3]; ANT4, ECG+Kur+Fus) of the same compound?
**A.** 0.125

**Q.** What about the MIC combine ([3]; ANT4, ECG+Kur+Fus) of the same compound?
**A.** 4 µg/mL

**Q.** What about the MIC combine ([3]; ANT4, ECG+Kur+Fus, listed as Fus) of the same compound?
**A.** 8 µg/mL

**Q.** And the MIC ([3]; read-out: MIC alone)?
**A.** 64 µg/mL

**Q.** And the FIC ([15]; 96591, ECG+Kur+Fus)?
**A.** 0.03

**Q.** And the MIC combine ([15]; 96591, ECG+Kur+Fus)?
**A.** 1 µg/mL

**Q.** What about the MIC ([15]; Staphylococcus aureus, MRSA, 96591 (fusidic acid resistant), read-out: MIC alone) of the same compound?
**A.** 32 µg/mL

**Q.** Which MIC90 (MRSA SA-ST239) does the source give for `O=C(O)c1cc(O)c(O)c(O)c1` [Gallic acid, 3,4,5-trihydroxybenzoic acid] here?
**A.** 256 µg/mL

**Q.** And the MIC99 (MRSA SA-ST239)?
**A.** > 512 µg/mL

**Q.** What about the MIC90 [1] of the same compound?
**A.** 512 µg/mL

**Q.** And the MIC99 [1]?
**A.** > 512 µg/mL

**Q.** And the MIC90 [2]?
**A.** 512 µg/mL

**Q.** And the MIC99 [2]?
**A.** > 512 µg/mL

**Q.** What about the “activity” value [7] of the same compound?
**A.** relatively weak

**Q.** What about the MIC90 [9] of the same compound?
**A.** 256 µg/mL

**Q.** And the MIC99 [9]?
**A.** > 512 µg/mL

**Q.** And the MIC90 [3]?
**A.** 512 µg/mL

**Q.** And the MIC99 [3]?
**A.** > 512 µg/mL

**Q.** And the MIC90 [4]?
**A.** 512 µg/mL

**Q.** And the MIC99 [4]?
**A.** > 512 µg/mL

**Q.** And the MIC90 [5]?
**A.** 512 µg/mL

**Q.** And the MIC99 [5]?
**A.** > 512 µg/mL

From US11690810B2, “Combination treatment of bacterial infection” (The Chinese University of Hong Kong, priority 2018, dated 2023)
